ChEMBL document CHEMBL3044721, “Homology modeling of human CCR2 receptor” (Med Chem Res, 2011)

Target: C-C chemokine receptor type 2 (Homo sapiens, UniProt P41597)
Assay: Antagonist activity at Homo sapiens (human) CCR2 receptor

C-C chemokine receptor type 2, sequence (P41597 whole entry): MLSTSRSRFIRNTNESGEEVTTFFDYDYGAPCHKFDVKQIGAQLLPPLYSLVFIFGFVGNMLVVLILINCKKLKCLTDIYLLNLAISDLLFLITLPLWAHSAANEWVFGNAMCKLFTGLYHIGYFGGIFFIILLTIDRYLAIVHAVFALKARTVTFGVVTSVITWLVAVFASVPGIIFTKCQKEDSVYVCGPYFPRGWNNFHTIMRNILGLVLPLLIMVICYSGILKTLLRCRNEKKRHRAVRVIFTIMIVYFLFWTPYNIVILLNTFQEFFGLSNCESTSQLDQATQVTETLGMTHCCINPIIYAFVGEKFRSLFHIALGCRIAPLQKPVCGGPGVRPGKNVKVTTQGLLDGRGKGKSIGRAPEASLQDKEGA

## CO[C@@H]1COCC[C@@H]1N[C@@H]1CC[C@](C(=O)N2CCc3ncc(C(F)(F)F)cc3C2)(C(C)C)C1
  IC50: 5 nM

## O=C(NCc1cc(C(F)(F)F)cc(C(F)(F)F)c1)[C@H](NCCN1CCCCC1)c1ccsc1
  IC50: 39 nM
